According to patent US20060069132A1, “Azolecarboxamide herbicides” (priority 2004, published 2006):

What was measured:
[1] = test system: Surinam grass; assay: Test C pre-/postemergence herbicide test; type: in vivo, Urochloa decumbens
Summary of the method: (§1)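 Preemergence: seeds planted and treated with compound in non-phytotoxic solvent with surfactant; postemergence: plants at 2 to 18 cm (1- to 4-leaf stage) sprayed likewise. Kept in greenhouse 12 to 14 days, then visually rated against controls, 0 (no effect) to 100 (complete control).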

[2] = test system: corn; assay: Test C pre-/postemergence herbicide test; type: in vivo, Zea mays
Summary of the method: as §1

[3] = test system: woolly cupgrass; assay: Test C pre-/postemergence herbicide test; type: in vivo, Eriochloa villosa
Summary of the method: as §1

[4] = test system: johnsongrass; assay: Test C pre-/postemergence herbicide test; type: in vivo, Sorghum halepense
Summary of the method: as §1

[5] = test system: eastern black nightshade; assay: Test C pre-/postemergence herbicide test; type: in vivo, Solanum ptycanthum; conditions: preemergence
Summary of the method: as §1

[6] = test system: common (oilseed) sunflower; assay: Test C pre-/postemergence herbicide test; type: in vivo, Helianthus annuus; conditions: preemergence
Summary of the method: as §1

[7] = test system: velvetleaf; assay: Test C pre-/postemergence herbicide test; type: in vivo, Abutilon theophrasti
Summary of the method: as §1

[8] = test system: smallflower umbrella sedge; assay: Test C flooded paddy test; type: in vivo, Cyperus difformis; conditions: for Plant response rating, Sedge, Umbrella: 500 g ai/ha, visual rating after 12 to 14 days
[9] = 250 g ai/ha, scale 0-100, preemergence
[10] = 500 g ai/ha, scale 0 to 100 (0 no effect, 100 complete control), visual, 12 to 14 days, preemergence
[11] = 62 g ai/ha, preemergence, scale 0 to 100
[12] = 125 g ai/ha, scale 0 (no effect) to 100 (complete control), visual, 12 to 14 days, preemergence
[13] = 125 g ai/ha, scale 0 (no effect) to 100 (complete control), visual, 12 to 14 days
[14] = 500 g ai/ha, scale 0 to 100 (0 no effect, 100 complete control), visual, 12 to 14 days
[15] = 125 g ai/ha, scale 0 to 100 (0 no effect, 100 complete control)
[16] = 250 g ai/ha, scale of 0 to 100, 0 is no effect, 100 is complete control
[17] = scale 0 to 100 (0 no effect, 100 complete control)
[18] = Postemergence, 500 g ai/ha, scale 0 to 100
[19] = Postemergence, 250 g ai/ha, scale 0 to 100, 0 no effect, 100 complete control
[20] = postemergence, 125 g ai/ha, scale 0 to 100
[21] = postemergence, 62 g ai/ha, scale 0 to 100

SMILES: CCNC(=O)c1cccc(NC(=O)c2cc(C3(C)CC3)nn2CC)c1 [Compound 306]
- Plant response rating, Surinam Grass [1, 9]: 40
- Plant response rating, Surinam Grass [1, 10]: 95
- Plant response rating, Corn [2, 11]: 5
- Plant response rating, Corn [2, 12]: 10
- Plant response rating, Corn [2, 9]: 20
- Plant response rating, Corn [2, 10]: 50
- Plant response rating, Cupgrass, Woolly [3, 11]: 5
- Plant response rating, Cupgrass, Woolly [3, 12]: 15
- Plant response rating, Cupgrass, Woolly [3, 9]: 30
- Plant response rating, Cupgrass, Woolly [3, 10]: 50
- Plant response rating, Johnsongrass [4, 11]: 40
- Plant response rating, Johnsongrass [4, 12]: 60
- Plant response rating, Johnsongrass [4, 9]: 80
- Plant response rating, Nightshade ([5]; 62 g ai/ha, scale 0 to 100): 90
- Plant response rating, Nightshade [5, 13]: 95
- Plant response rating, Nightshade ([5]; 250 g ai/ha, scale 0-100): 100
- Plant response rating, Nightshade [5, 14]: 100
- Plant response rating, Sunflower ([6]; 62 g ai/ha, scale 0 to 100): 0
- Plant response rating, Sunflower ([6]; 250 g ai/ha, scale 0-100): 0
- Plant response rating, Sunflower [6, 14]: 0
- Plant response rating, Velvetleaf [7, 11]: 5
- Plant response rating, Velvetleaf [7, 10]: 10
- Sedge, Umbrella plant response rating ([8]; 62 g ai/ha, scale 0 to 100): 85
- Sedge, Umbrella plant response rating [8, 15]: 90
- Sedge, Umbrella plant response rating [8, 16]: 90
- Plant response rating, Sedge, Umbrella [8, 17]: 90

SMILES: CCn1nc(C(C)(C)C)cc1C(=O)Nc1cccc(OC(F)F)c1 [Compound 332]
- Plant response rating, Surinam Grass [1, 11]: 5
- Plant response rating, Surinam Grass [1, 9]: 10
- Plant response rating, Surinam Grass [1, 10]: 15
- Surinam Grass plant response rating [1, 18]: 30
- Plant response rating, Surinam Grass [1, 19]: 10
- Plant response rating, Surinam Grass [1, 20]: 5
- Plant response rating, Surinam Grass [1, 21]: 5
- Plant response rating, Corn [2, 11]: 0
- Plant response rating, Corn [2, 12]: 0
- Plant response rating, Corn [2, 9]: 0
- Plant response rating, Corn [2, 10]: 5
- Corn plant response rating [2, 18]: 5
- Plant response rating, Corn [2, 19]: 5
- Plant response rating, Corn [2, 20]: 0
- Plant response rating, Corn [2, 21]: 0
- Plant response rating, Cupgrass, Woolly [3, 11]: 0
- Plant response rating, Cupgrass, Woolly [3, 12]: 0
- Plant response rating, Cupgrass, Woolly [3, 9]: 5
- Plant response rating, Cupgrass, Woolly [3, 10]: 10
- Cupgrass, Woolly plant response rating [3, 18]: 10
- Plant response rating, Cupgrass, Woolly [3, 19]: 10
- Plant response rating, Cupgrass, Woolly [3, 20]: 5
- Plant response rating, Cupgrass, Woolly [3, 21]: 5
- Plant response rating, Johnsongrass [4, 11]: 0
- Plant response rating, Johnsongrass [4, 12]: 10
- Plant response rating, Johnsongrass [4, 9]: 50
- Plant response rating, Johnsongrass [4, 10]: 80
- Johnsongrass plant response rating [4, 18]: 5
- Plant response rating, Johnsongrass [4, 19]: 5
- Plant response rating, Johnsongrass [4, 20]: 5
- Plant response rating, Johnsongrass [4, 21]: 0
- Plant response rating, Nightshade ([5]; 62 g ai/ha, scale 0 to 100): 20
- Plant response rating, Nightshade [5, 13]: 90
- Plant response rating, Nightshade ([5]; 250 g ai/ha, scale 0-100): 95
- Plant response rating, Nightshade [5, 14]: 100
- Plant response rating, Sunflower ([6]; 62 g ai/ha, scale 0 to 100): 0
- Plant response rating, Sunflower ([6]; 250 g ai/ha, scale 0-100): 0
- Plant response rating, Sunflower [6, 14]: 0
- Plant response rating, Velvetleaf [7, 11]: 40
- Plant response rating, Velvetleaf [7, 9]: 45
- Plant response rating, Velvetleaf [7, 10]: 70
- Velvetleaf plant response rating [7, 18]: 90
- Plant response rating, Velvetleaf [7, 19]: 85
- Plant response rating, Velvetleaf [7, 20]: 60
- Plant response rating, Velvetleaf [7, 21]: 40
- Sedge, Umbrella plant response rating ([8]; 62 g ai/ha, scale 0 to 100): 65
- Sedge, Umbrella plant response rating [8, 15]: 80
- Sedge, Umbrella plant response rating [8, 16]: 85
- Plant response rating, Sedge, Umbrella [8, 17]: 85

SMILES: CCn1nc(C(C)(C)C)cc1C(=O)Nc1cc(C(=S)N(C)C)ccn1 [Compound 334]
- Plant response rating, Surinam Grass [1, 11]: 55
- Plant response rating, Surinam Grass [1, 9]: 95
- Plant response rating, Corn [2, 11]: 0
- Plant response rating, Corn [2, 12]: 20
- Plant response rating, Corn [2, 9]: 50
- Plant response rating, Cupgrass, Woolly [3, 11]: 25
- Plant response rating, Cupgrass, Woolly [3, 12]: 60
- Plant response rating, Cupgrass, Woolly [3, 9]: 85
- Plant response rating, Johnsongrass [4, 11]: 90
- Plant response rating, Johnsongrass [4, 12]: 100
- Plant response rating, Johnsongrass [4, 9]: 100
- Plant response rating, Nightshade ([5]; 62 g ai/ha, scale 0 to 100): 100
- Plant response rating, Nightshade [5, 13]: 100
- Plant response rating, Nightshade ([5]; 250 g ai/ha, scale 0-100): 100
- Plant response rating, Sunflower ([6]; 62 g ai/ha, scale 0 to 100): 5
- Plant response rating, Sunflower ([6]; 250 g ai/ha, scale 0-100): 55
- Plant response rating, Velvetleaf [7, 11]: 5
- Plant response rating, Velvetleaf [7, 9]: 85
- Sedge, Umbrella plant response rating ([8]; 62 g ai/ha, scale 0 to 100): 80
- Sedge, Umbrella plant response rating [8, 15]: 90
- Sedge, Umbrella plant response rating [8, 16]: 90
- Plant response rating, Sedge, Umbrella [8, 17]: 95
